Source: patent US9957274B2, “Indane inhibitors of EED and methods of their use” (AbbVie Inc., priority 2016, dated 2018)

What was measured:
EED = EED (Homo sapiens, UniProt O75530); test: EED TR-FRET Binding Assay (modified LanthaScreen competition assay)
Description: Compounds were tested in a modified LanthaScreen competition assay.
The following buffer was used to set up the binding reactions: 20 mM Tris-HCl pH 7.5, 200 mM NaCl, 0.01% Tween-20, 10 uM DTT (dithiothreitol), and 0.05% BSA (bovine serum albumin), with the DTT and BSA added fresh prior to initiating the binding assay. […] The reactions were then incubated for 1 hour at 25° C. in a humidified chamber prior to detection on the Perkin Elmer Envision plate reader using a Lanthascreen TR-FRET protocol.

Pfeiffer cells = test: CTG cell viability assay (CellTiter-Glo); format: cell-based; conditions: Homo sapiens, 240 h; Pfeiffer cells, 10 days with compound, CellTiter-Glo; read-out: Cell Proliferation IC50
Description: 1,000 cells were plated into each well of 96-well Corning CellBing cell culture plates and incubated overnight at 37° C. in a humidified CO2 incubator. […] The cell culture plates were then incubated for 10 more days. CTG cell viability assay was performed on the cell culture samples by using CellTiter-Glo® Luminescent Cell Viability Assay Kit (Promega).

EED, sequence (O75530 whole entry): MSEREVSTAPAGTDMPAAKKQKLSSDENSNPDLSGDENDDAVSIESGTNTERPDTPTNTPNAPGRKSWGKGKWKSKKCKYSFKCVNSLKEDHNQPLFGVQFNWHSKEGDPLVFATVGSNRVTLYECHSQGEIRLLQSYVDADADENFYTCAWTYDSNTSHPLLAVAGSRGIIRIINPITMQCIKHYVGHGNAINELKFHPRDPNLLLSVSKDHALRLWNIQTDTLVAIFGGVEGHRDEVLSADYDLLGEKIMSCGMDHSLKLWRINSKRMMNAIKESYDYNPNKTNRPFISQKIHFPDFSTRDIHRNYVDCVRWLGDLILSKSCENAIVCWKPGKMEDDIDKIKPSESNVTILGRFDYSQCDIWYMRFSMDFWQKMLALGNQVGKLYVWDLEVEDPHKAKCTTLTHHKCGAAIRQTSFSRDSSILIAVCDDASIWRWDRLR

With `CN(C)[C@@H]1CN(C2CCc3cccc(F)c32)C[C@H]1c1ccc(N2CCNCC2)cc1` (mixture of isomers) [Example 41, rac-(3S,4R)-1-(7-fluoro-2,3-dihydro-1H-inden-1-yl)-N,N-dimethyl-4-[4-(piperazin-1-yl)phenyl]pyrrolidin-3-amine] the IC50 (EED) was 0.00199 µM and the IC50 (Pfeiffer cells) was 0.188 µM.

`CC(=O)N1CCN(c2ccc([C@H]3CN(C4CCc5cccc(F)c54)C[C@@H]3N(C)C)cc2C)CC1` (mixture of isomers) [Example 60, rac-1-(4-{4-[(3S,4R)-4-(dimethylamino)-1-(7-fluoro-2,3-dihydro-1H-inden-1-yl)pyrrolidin-3-yl]-2-methylphenyl}piperazin-1-yl)ethan-1-one] showed an IC50 (EED) of 0.00662 µM and an IC50 (Pfeiffer cells) of 0.302 µM.

With `CN(C)[C@@H]1CN(C2CCc3cccc(F)c32)C[C@H]1c1ccc(-c2ncco2)cc1` (mixture of isomers) [Example 66, rac-(3S,4R)-1-(7-fluoro-2,3-dihydro-1H-inden-1-yl)-N,N-dimethyl-4-[4-(1,3-oxazol-2-yl)phenyl]pyrrolidin-3-amine] the IC50 (EED) was 0.00268 µM and the IC50 (Pfeiffer cells) was 1.13 µM.

`Cc1noc(-c2ccc([C@H]3CN(C4CCc5cccc(F)c54)C[C@@H]3N(C)C)cc2)n1` (mixture of isomers) [Example 67, rac-(3R,4S)-1-(7-fluoro-2,3-dihydro-1H-inden-1-yl)-N,N-dimethyl-4-[4-(3-methyl-1,2,4-oxadiazol-5-yl)phenyl]pyrrolidin-3-amine] showed an IC50 (EED) of 0.00306 µM and an IC50 (Pfeiffer cells) of 1.63 µM.

With `Cc1nnc(-c2ccc([C@@H]3CN(C4CCc5cccc(F)c54)C[C@H]3N(C)C)cc2)o1` (mixture of isomers) [Example 68, rac-(3S,4R)-1-(7-fluoro-2,3-dihydro-1H-inden-1-yl)-N,N-dimethyl-4-[4-(5-methyl-1,3,4-oxadiazol-2-yl)phenyl]pyrrolidin-3-amine] the IC50 (EED) was 0.00237 µM and the IC50 (Pfeiffer cells) was 0.491 µM.

Work on `CN(C)[C@H]1CN(C2CCc3cccc(F)c32)C[C@@H]1c1cn(C)c2c(C(=O)O)cccc12` (mixture of isomers) [Example 80, rac-3-[(3S,4R)-4-(dimethylamino)-1-(7-fluoro-2,3-dihydro-1H-inden-1-yl)pyrrolidin-3-yl]-1-methyl-1H-indole-7-carboxylic acid] yielded an IC50 (EED) of 0.00944 µM and an IC50 (Pfeiffer cells) of 1.52 µM.

For `CN(C)[C@H]1CN(C2CCc3cc(F)cc(F)c32)C[C@@H]1c1cn(C)c2ccccc12` (mixture of isomers) [Example 95, rac-(3R,4S)-1-(5,7-difluoro-2,3-dihydro-1H-inden-1-yl)-N,N-dimethyl-4-(1-methyl-1H-indol-3-yl)pyrrolidin-3-amine], the IC50 (EED) was 0.0027 µM and the IC50 (Pfeiffer cells) was 1.72 µM.

`CN(CCO)C(=O)c1cccc2c([C@H]3CN(C4CCc5cccc(F)c54)C[C@@H]3N(C)C)cn(C)c12` (mixture of isomers) [Example 98, rac-3-[(3S,4R)-4-(dimethylamino)-1-(7-fluoro-2,3-dihydro-1H-inden-1-yl)pyrrolidin-3-yl]-N-(2-hydroxyethyl)-N,1-dimethyl-1H-indole-7-carboxamide] was tested, and the IC50 (EED) was 0.00137 µM and the IC50 (Pfeiffer cells) was 0.126 µM.

Compound `CNC(=O)c1cccc2c([C@H]3CN(C4CCc5cccc(F)c54)C[C@@H]3N(C)C)cn(C)c12` (mixture of isomers) [Example 99, rac-3-[(3S,4R)-4-(dimethylamino)-1-(7-fluoro-2,3-dihydro-1H-inden-1-yl)pyrrolidin-3-yl]-N,1-dimethyl-1H-indole-7-carboxamide] has an IC50 (EED) of 0.00191 µM and an IC50 (Pfeiffer cells) of 0.303 µM.

`CN(C)[C@H]1CN(C2CCc3cccc(F)c32)C[C@@H]1c1cn(C)c2c(C(=O)NC3CC(O)C3)cccc12` (mixture of isomers) [Example 108, rac-3-[(3S,4R)-4-(dimethylamino)-1-(7-fluoro-2,3-dihydro-1H-inden-1-yl)pyrrolidin-3-yl]-N-(3-hydroxycyclobutyl)-1-methyl-1H-indole-7-carboxamide] showed an IC50 (EED) of 0.0015 µM and an IC50 (Pfeiffer cells) of 0.152 µM.

With `CN(C(=O)c1cccc2c([C@H]3CN(C4CCc5cccc(F)c54)C[C@@H]3N(C)C)cn(C)c12)C1CC(O)C1` (mixture of isomers) [Example 109, rac-3-[(3S,4R)-4-(dimethylamino)-1-(7-fluoro-2,3-dihydro-1H-inden-1-yl)pyrrolidin-3-yl]-N-(3-hydroxycyclobutyl)-N,1-dimethyl-1H-indole-7-carboxamide] the IC50 (EED) was 0.0016 µM and the IC50 (Pfeiffer cells) was 0.141 µM.
